According to patent US20260217693A1, “SRPK1 INHIBITORS AND METHODS OF USE” (ALLIANTHERA (SUZHOU) BIOPHARMACEUTICAL CO., LTD., priority 2023, published 2026):

Key:
SRPK1 [1] = biological target: T1, SRPK1 (Homo sapiens, UniProt Q96SB4); assay: SRPK1 assay, Method 2 (ADP-Glo luminescence); type: biochemical; details: Method 2 (asterisk): substrate Human SRSF1/SF2 0.15 μM, ATP 4 μM, 25° C. for 3 h, test compounds 100 nM top, 3-fold, 10 dose
Protocol: (§1) The SPRK1 assay was performed as follows:
Method 2: The assay buffer was prepared. The reference compound was diluted to 1 mM in the assay buffer. The test compounds were prepared at a concentration of 100 μM, then diluted 3-fold. Five nL of compounds/DMSO were transferred to 384-well plate. The reference compound is 1000 nM top concentration, 3-fold, 10 dose. The test compounds are 100 nM top concentration, 3-fold, 10 dose. 2.5 ul of enzyme (SRPK1 final concentration at […]) was added to each well, then the plate was spun down at 1000 rpm and centrifuged for 30 sec. After, 2.5 ul substrate (Human SRSF1/SF2 final concentration of 0.15 μM, ATP final concentration of 4 μM) was added to the plate, spun down at 1000 rpm and centrifuged for 30 sec. The plate was then placed in an incubator at 25° C. for 3 h. Then, 5 μl of ADP-Glo™ Reagent was added to each well, and the plate incubated at room temperature for 60 minutes. After 60 min, 10 μl of Kinase Detection Reagent was added to each well, and the plate was incubated at room temperature for 30 minutes. The luminescence of each well was recorded on Envision.
All assays were performed using Method 1, except where indicated with an asterisk (*) in the below table, indicating Method 2 was used. I.A. indicates an IC50 greater than 30 μM.

SRPK1 [2] = biological target: T1, SRPK1; assay: SRPK1 assay, Method 1 (ADP-Glo luminescence); type: biochemical; details: Method 1 (no asterisk): substrate Human SRSF1/SF2, 25° C. for 90 min, test compounds 30 μM top, 3-fold, duplicate
Protocol: as §1
Method 1: The assay buffer was prepared. The reference compound was diluted to 10 mM. The test compounds were prepared at a concentration of 30 mM. Fifteen nL of compounds/DMSO were transferred to a multi-well plate. Then, 7.5 ul enzyme SRPK1 was added to each well, the plate was spun down at 1000 rpm and centrifuged for 30 sec. Then, 7.5 ul substrate Human SRSF1/SF2 was added to each well, the plate spun down at 1000 rpm and centrifuged for 30 sec. The plate was then incubated at 25° C. for 90 min. After 90 min, 5 μl of ADP-Glo™ Reagent was added to each well and the plate incubated at room temperature for 60 minutes. Then, 10 μl of Kinase Detection Reagent was added to each well and the plate incubate at room temperature for 60 minutes. The luminescence of each well was recorded on Envision. The test compounds were at 30 μM top, 3-fold, in duplicate, and the final concentration of DMSO was 0.1%.
All assays were performed using Method 1, except where indicated with an asterisk (*) in the below table, indicating Method 2 was used.

T1 sequence (Q96SB4 whole entry): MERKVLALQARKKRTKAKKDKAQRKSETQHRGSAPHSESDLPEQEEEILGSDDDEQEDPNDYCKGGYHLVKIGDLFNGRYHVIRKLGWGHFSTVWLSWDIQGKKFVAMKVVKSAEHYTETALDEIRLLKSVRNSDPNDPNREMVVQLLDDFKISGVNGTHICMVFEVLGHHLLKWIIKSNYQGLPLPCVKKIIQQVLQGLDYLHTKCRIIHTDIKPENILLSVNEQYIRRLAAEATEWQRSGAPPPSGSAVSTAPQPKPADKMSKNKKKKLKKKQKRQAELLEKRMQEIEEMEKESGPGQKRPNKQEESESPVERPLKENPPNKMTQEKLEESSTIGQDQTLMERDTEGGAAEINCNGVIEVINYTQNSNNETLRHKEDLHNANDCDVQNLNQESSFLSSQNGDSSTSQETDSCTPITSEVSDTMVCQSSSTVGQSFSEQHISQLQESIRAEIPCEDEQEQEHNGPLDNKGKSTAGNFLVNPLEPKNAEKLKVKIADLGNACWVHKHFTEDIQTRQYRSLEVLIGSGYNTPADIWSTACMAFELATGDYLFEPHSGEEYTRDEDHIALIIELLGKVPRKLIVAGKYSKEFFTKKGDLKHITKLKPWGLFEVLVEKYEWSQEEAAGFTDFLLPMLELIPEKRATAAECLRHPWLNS

| IC50 (SRPK1 [1]) [nM] | IC50 (SRPK1 [2]) [nM] | SMILES |
| --- | --- | --- |
| 3.23 |  | O=C(Nc1cc(C(F)(F)F)cnc1N1CCC(O)CC1)c1ccc(-c2cn[nH]c2)cn1 [Compound 097, N-[2-(4-hydroxy-1-piperidyl)-5-(trifluoromethyl)-3-pyridyl]-5-(1H-pyrazol-4-yl)pyridine-2-carboxamide] |
| 3.98 |  | Nc1cc(-c2ccc(C(=O)Nc3cc(C(F)(F)F)cnc3N3CCC(O)CC3)o2)ccn1 [Compound 015] |
| 1.4 |  | O=C(Nc1cc(C2CC2)cnc1N1CCC(O)CC1)c1ccc(-c2ccnc(O)c2)o1 [Compound 022] |
| 0.769 |  | CC1(O)CCN(c2ncc(C3CC3)cc2NC(=O)c2ccc(-c3cn[nH]c3)o2)CC1 [Compound 095, N-[5-cyclopropyl-2-(4-hydroxy-4-methyl-1-piperidyl)-3-pyridyl]-5-(1H-pyrazol-4-yl) furan-2-carboxamide] |
| 24.9 |  | CC1(C(N)=O)CCN(c2ncc(C(F)(F)F)cc2NC(=O)c2ccc(C3CCOCC3)o2)CC1 [Compound 048] |
| 0.615 |  | O=C(Nc1cc(C2CC2)cnc1N1CCC(O)CC1)c1ccc(-c2cn[nH]c2)o1 [Compound 086] |
| 0.942 |  | Nc1cc(-c2ccc(C(=O)Nc3cc(C4CC4)cnc3N3CCC(O)CC3)o2)ccn1 [Compound 018] |
| 0.248 |  | Nc1cc(-c2ccc(C(=O)Nc3cc(C4CC4)cnc3N3CCC(O)CC3)o2)cc(N)n1 [Compound 020] |
| 1.98 |  | O=C(Nc1cc(C(F)(F)F)cnc1N1CCC(O)CC1)c1ccc(-c2cn[nH]c2)o1 [Compound 053] |
|  | > 30000 | Nc1cc(-c2ccc(C(=O)Nc3cc(C(F)(F)F)cnc3N3CCc4[nH]ncc4C3)o2)ccn1 [Compound 124] |
|  | 358 | CC1(O)CCN(c2ncc(C(F)(F)F)cc2NC(=O)c2ccc(-c3ccncc3)o2)CC1 [Compound 026] |
|  | 14700 | O=C(Nc1cc(C(F)(F)F)cnc1-c1cncnc1)c1ccc(C2CCOCC2)o1 [Compound 013] |
|  | 102 | CC1C[C@@H](O)CCN1c1ncc(C(F)(F)F)cc1NC(=O)c1ccc(-c2ccncc2)o1 (stereo in doubt) [Compound 079, N-(2-((2R,4S)-4-hydroxy-2-methylpiperidin-1-yl)-5-(trifluoromethyl)pyridin-3-yl)-5-(pyridin-4-yl) furan-2-carboxamide] |
|  | > 30000 | C[C@@H]1C[C@H](O)CCN1c1ncc(C(F)(F)F)cc1NC(=O)c1ccc(-c2cc(N)nc(N)c2)o1 [Compound 133] |
|  | 260 | O=C(Nc1cc(C(F)(F)F)cnc1N1CCC(O)CC1)c1ccccn1 [Compound 047] |
|  | > 30000 | C[C@@H]1C[C@@H](O)CCN1c1ncc(C2CC2)cc1NC(=O)c1ccc(Br)o1 [Compound 116] |
|  | > 30000 | O=C(Nc1cc(C(F)(F)F)cnc1N1CCC(O)CC1)c1ccc(C(F)(F)F)cn1 [Compound 077] |
|  | > 30000 | CC(=O)OC1CCN(c2ncc(C(F)(F)F)cc2NC(=O)c2ccc(C(F)(F)F)cn2)CC1 [Compound 068] |
|  | 2340 | CC(=O)OC1CCN(c2ncc(C(F)(F)F)cc2NC(=O)c2ccc(-c3ccnnc3)o2)CC1 [Compound 049] |
|  | > 30000 | Nc1cc(-c2ccc(C(=O)Nc3cc(C4CC4)cnc3N3CCc4[nH]ncc4C3)o2)ccn1 [Compound 122] |
